{"source": "paper PMC5218480", "about": "(PLoS ONE, 2017)", "test_system": "MV-4-11 cells", "assay": "Gene expression microarray analysis (Affymetrix PrimeView) and GSEA", "format": "cell-based, human", "design": "RFU PODN (11730768_x_at) / Fold change /veh PODN (11730768_x_at) / RFU LINC00158 (11744669_a_at) / Fold change /veh LINC00158 (11744669_a_at) / RFU DUSP10 (11751237_a_at) / Fold change /veh DUSP10 (11751237_a_at) / RFU ID3 (11757404_x_at) / Fold change /veh ID3 (11757404_x_at) / RFU PLEKHG5 (11737974_s_at) / Fold change /veh PLEKHG5 (11737974_s_at) / RFU LRRC4B (11730491_at) / Fold change /veh LRRC4B (11730491_at) / RFU GIMAP4 (11747438_a_at) / Fold change /veh GIMAP4 (11747438_a_at) / RFU KRT8 (11758183_x_at) / Fold change /veh KRT8 (11758183_x_at) / RFU CNN1 (11734310_a_at) / Fold change /veh CNN1 (11734310_a_at) / RFU VPS37D (11726825_at) / Fold change /veh VPS37D (11726825_at) / RFU C10orf10 (11716522_x_at) / Fold change /veh C10orf10 (11716522_x_at) / RFU KIR2DL2 /// KIR2DL4 /// KIR2DL5A /// KIR2DL5B /// KIR2DS1 /// KIR2DS2 /// KIR2DS3 /// KIR2DS4 /// KIR3DL3 /// KIR3DL3 /// KIR3DS1 (11738374_at) / Fold change /veh KIR2DL2 /// KIR2DL4 /// KIR2DL5A /// KIR2DL5B /// KIR2DS1 /// KIR2DS2 /// KIR2DS3 /// KIR2DS4 /// KIR3DL3 /// KIR3DL3 /// KIR3DS1 (11738374_at) / RFU C1QL1 (11718748_at) / Fold change /veh C1QL1 (11718748_at) / RFU TMPRSS4 (11747572_a_at) / Fold change /veh TMPRSS4 (11747572_a_at) / RFU HAMP (11756126_x_at) / Fold change /veh HAMP (11756126_x_at) / RFU RNFT2 (11725882_a_at) / Fold change /veh RNFT2 (11725882_a_at) / RFU NR4A2 (11747474_a_at) / Fold change /veh NR4A2 (11747474_a_at) / RFU ABCC12 (11746883_a_at) / Fold change /veh ABCC12 (11746883_a_at) / RFU TMEM136 (11760407_x_at) / Fold change /veh TMEM136 (11760407_x_at) / RFU CLDN22 /// WWC2 (11732394_at) / Fold change /veh CLDN22 /// WWC2 (11732394_at) / RFU HLA-DPB1 (11760878_x_at) / Fold change /veh HLA-DPB1 (11760878_x_at) / RFU SPINT1 (11716480_a_at) / Fold change /veh SPINT1 (11716480_a_at) / RFU GAP43 (11754022_s_at) / Fold change /veh GAP43 (11754022_s_at) / RFU A4GNT (11735810_at) / Fold change /veh A4GNT (11735810_at) / RFU PRB3 (11715151_x_at) / Fold change /veh PRB3 (11715151_x_at) / RFU TUBB4B (11761932_at) / Fold change /veh TUBB4B (11761932_at) / RFU CAPN14 (11732068_a_at) / Fold change /veh CAPN14 (11732068_a_at) / RFU TMCC2 (11721928_a_at) / Fold change /veh TMCC2 (11721928_a_at) / RFU IRGQ (11745062_a_at) / Fold change /veh IRGQ (11745062_a_at) / RFU FAM174B (11720279_a_at) / Fold change /veh FAM174B (11720279_a_at) / RFU TMPRSS4 (11748680_a_at) / Fold change /veh TMPRSS4 (11748680_a_at) / RFU FAM212B (11763350_a_at) / Fold change /veh FAM212B (11763350_a_at) / RFU PLEKHG5 (11743358_a_at) / Fold change /veh PLEKHG5 (11743358_a_at) / RFU ZSCAN30 (11745921_a_at) / Fold change /veh ZSCAN30 (11745921_a_at) / RFU CMKLR1 (11741424_a_at) / Fold change /veh CMKLR1 (11741424_a_at) / RFU LOC101060620 /// MAPK8IP1 (11723275_at) / Fold change /veh LOC101060620 /// MAPK8IP1 (11723275_at) / RFU SPTSSB (11747773_x_at) / Fold change /veh SPTSSB (11747773_x_at) / RFU PRSS12 (11739890_at) / Fold change /veh PRSS12 (11739890_at) / RFU BIN1 (11741810_x_at) / Fold change /veh BIN1 (11741810_x_at) / RFU WNT11 (11732464_a_at) / Fold change /veh WNT11 (11732464_a_at) / RFU C10orf10 (11716521_a_at) / Fold change /veh C10orf10 (11716521_a_at) / RFU C5orf56 (11738089_at) / Fold change /veh C5orf56 (11738089_at) / RFU CYB561 (11721691_x_at) / Fold change /veh CYB561 (11721691_x_at) / RFU ANKRD19P (11752326_a_at) / Fold change /veh ANKRD19P (11752326_a_at) / RFU OR2T12 /// OR2T33 /// OR2T8 (11738714_s_at) / Fold change /veh OR2T12 /// OR2T33 /// OR2T8 (11738714_s_at) / RFU VCAN (11748164_a_at) / Fold change /veh VCAN (11748164_a_at) / RFU JSRP1 (11732532_at) / Fold change /veh JSRP1 (11732532_at) / RFU KRTAP10-11 (11738290_x_at) / Fold change /veh KRTAP10-11 (11738290_x_at) / RFU MYO3A (11730013_a_at) / Fold change /veh MYO3A (11730013_a_at) / RFU EBF3 (11725865_a_at) / Fold change /veh EBF3 (11725865_a_at) / RFU CAMK2N1 (11719241_x_at) / Fold change /veh CAMK2N1 (11719241_x_at) / RFU C5orf56 (11738088_a_at) / Fold change /veh C5orf56 (11738088_a_at) / RFU OLFML3 (11715873_a_at) / Fold change /veh OLFML3 (11715873_a_at) / RFU LOC100653217 /// NTM (11731650_a_at) / Fold change /veh LOC100653217 /// NTM (11731650_a_at) / RFU MAPK11 (11762145_a_at) / Fold change /veh MAPK11 (11762145_a_at) / RFU FIZ1 (11724087_x_at) / Fold change /veh FIZ1 (11724087_x_at) / RFU OASL (11726364_x_at) / Fold change /veh OASL (11726364_x_at) / RFU SOX15 (11748057_x_at) / Fold change /veh SOX15 (11748057_x_at) / RFU CD79A (11719716_a_at) / Fold change /veh CD79A (11719716_a_at) / RFU HIST1H1D (11736915_at) / Fold change /veh HIST1H1D (11736915_at) / RFU CASKIN2 (11723855_a_at) / Fold change /veh CASKIN2 (11723855_a_at) / RFU LOC730098 (11760151_x_at) / Fold change /veh LOC730098 (11760151_x_at) / RFU OR4N2 (11742367_at) / Fold change /veh OR4N2 (11742367_at) / RFU PRRT2 (11749266_a_at) / Fold change /veh PRRT2 (11749266_a_at) / RFU SNX32 (11753110_a_at) / Fold change /veh SNX32 (11753110_a_at) / RFU CDHR5 (11726645_a_at) / Fold change /veh CDHR5 (11726645_a_at) / RFU RCAN1 (11760418_a_at) / Fold change /veh RCAN1 (11760418_a_at) / RFU FAM167A (11723789_a_at) / Fold change /veh FAM167A (11723789_a_at) / RFU FAM26E (11764081_at) / Fold change /veh FAM26E (11764081_at) / RFU ISYNA1 (11749810_s_at) / Fold change /veh ISYNA1 (11749810_s_at) / RFU ACY1 (11761880_at) / Fold change /veh ACY1 (11761880_at) / RFU 11764098_at / Fold change /veh 11764098_at / RFU SAMD14 (11745864_x_at) / Fold change /veh SAMD14 (11745864_x_at) / RFU NPB (11741838_a_at) / Fold change /veh NPB (11741838_a_at) / RFU TMPRSS6 (11731388_a_at) / Fold change /veh TMPRSS6 (11731388_a_at) / RFU KRTAP10-2 (11738614_at) / Fold change /veh KRTAP10-2 (11738614_at) / RFU ARHGAP8 /// PRR5-ARHGAP8 (11727945_x_at) / Fold change /veh ARHGAP8 /// PRR5-ARHGAP8 (11727945_x_at) / RFU KRTAP5-7 /// NADSYN1 (11734609_at) / Fold change /veh KRTAP5-7 /// NADSYN1 (11734609_at) / RFU RASL12 (11751679_a_at) / Fold change /veh RASL12 (11751679_a_at) / RFU CDKN2B (11736163_a_at) / Fold change /veh CDKN2B (11736163_a_at) / RFU PRF1 (11729649_at) / Fold change /veh PRF1 (11729649_at) / RFU, ZNF638 /// ZNF638-IT1 / Fold change vs veh, ZNF638 /// ZNF638-IT1 / RFU, PANK3 / Fold change vs veh, PANK3 / RFU, SH3YL1 / Fold change vs veh, SH3YL1 / RFU, ZEB2 / Fold change vs veh, ZEB2 / RFU, NRIP1 / Fold change vs veh, NRIP1 / RFU, PTTG1IP / Fold change vs veh, PTTG1IP / RFU, CAPN2 / Fold change vs veh, CAPN2 / RFU, MED14 / Fold change vs veh, MED14 / RFU, SNORA58 / Fold change vs veh, SNORA58 / RFU, C1orf63 / Fold change vs veh, C1orf63 / RFU, LRRFIP1 / Fold change vs veh, LRRFIP1 / RFU, NDUFAF7 / Fold change vs veh, NDUFAF7 / RFU, SLC12A2 / Fold change vs veh, SLC12A2 / RFU, IBTK / Fold change vs veh, IBTK / RFU, ESF1 / Fold change vs veh, ESF1 / Fold change vs veh, TMEM50B / RFU, TAOK1 / Fold change vs veh, TAOK1 / RFU, ACBD3 / Fold change vs veh, ACBD3 / RFU, TMA16 / Fold change vs veh, TMA16 / RFU, RWDD3 / Fold change vs veh, RWDD3 / RFU, BCAT1 / Fold change vs veh, BCAT1 / RFU, EDEM3 / Fold change vs veh, EDEM3 / RFU, TMEM33 / Fold change vs veh, TMEM33 / RFU, WDR75 / Fold change vs veh, WDR75 / RFU, AHCTF1 / Fold change vs veh, AHCTF1 / RFU, TFRC / Fold change vs veh, TFRC / RFU, ZDHHC17 / Fold change vs veh, ZDHHC17 / RFU, NOM1 / Fold change vs veh, NOM1 / RFU, ARL8B / Fold change vs veh, ARL8B / RFU, ZBTB11 / Fold change vs veh, ZBTB11 / RFU, TAMM41 / Fold change vs veh, TAMM41 / RFU, KIAA1704 /// LOC100996395 / Fold change vs veh, KIAA1704 /// LOC100996395 / RFU, ING1 / Fold change vs veh, ING1 / RFU, TRMT61B / Fold change vs veh, TRMT61B / RFU, FUBP3 / Fold change vs veh, FUBP3 / RFU, TP53 / Fold change vs veh, TP53 / RFU, TNKS2 / Fold change vs veh, TNKS2 / RFU, ZFP14 / Fold change vs veh, ZFP14 / RFU, ACTR2 / Fold change vs veh, ACTR2 / RFU, PPP3R1 / Fold change vs veh, PPP3R1 / RFU, PIK3R1 / Fold change vs veh, PIK3R1 / RFU, HNRNPA1 / Fold change vs veh, HNRNPA1 / RFU, RNF170 / Fold change vs veh, RNF170 / RFU, ZNF28 / Fold change vs veh, ZNF28 / RFU, RNGTT / Fold change vs veh, RNGTT / RFU, OGT / Fold change vs veh, OGT / RFU, BRD1 / Fold change vs veh, BRD1 / RFU, MARS / Fold change vs veh, MARS / RFU, ZNF655 / Fold change vs veh, ZNF655 / RFU, FAHD1 / Fold change vs veh, FAHD1 / RFU, BDP1 / Fold change vs veh, BDP1 / RFU, LRRCC1 / Fold change vs veh, LRRCC1 / RFU, ARID1A / Fold change vs veh, ARID1A / RFU, ZNF146 / Fold change vs veh, ZNF146 / RFU, ZNF330 / Fold change vs veh, ZNF330 / RFU, GPN3 / Fold change vs veh, GPN3 / RFU, C9orf123 / Fold change vs veh, C9orf123 / RFU, N4BP2L2 / Fold change vs veh, N4BP2L2 / RFU, ARFIP1 / Fold change vs veh, ARFIP1 / RFU, FAM179B / Fold change vs veh, FAM179B / RFU, BCL10 / Fold change vs veh, BCL10 / RFU, UHRF1BP1L / Fold change vs veh, UHRF1BP1L / RFU, BET1 / Fold change vs veh, BET1 / RFU, CNOT2 / Fold change vs veh, CNOT2 / RFU, ZNF268 / Fold change vs veh, ZNF268 / Fold change vs veh, ZNF507 / RFU, DGCR2 / Fold change vs veh, DGCR2 / RFU, WDSUB1 / Fold change vs veh, WDSUB1 / Fold change vs veh, HSP90B1 /// MIR3652 / RFU, ADSS / Fold change vs veh, ADSS / RFU, GK / Fold change vs veh, GK / RFU, ZNF148 / Fold change vs veh, ZNF148 / RFU, TAF9 / Fold change vs veh, TAF9 / RFU, SLC1A5 / Fold change vs veh, SLC1A5 / RFU, SLMO2 / Fold change vs veh, SLMO2 / RFU, ABCC4 / Fold change vs veh, ABCC4 / RFU, LOC101060439 /// RAP1B / Fold change vs veh, LOC101060439 /// RAP1B / RFU, RFX7 / Fold change vs veh, RFX7 / RFU, GTPBP10 / Fold change vs veh, GTPBP10 / RFU, CNEP1R1 / Fold change vs veh, CNEP1R1 / RFU, BIVM-ERCC5 /// ERCC5 / Fold change vs veh, BIVM-ERCC5 /// ERCC5 / RFU, ILF3 / Fold change vs veh, ILF3 / RFU 11762660_at / Fold change /veh 11762660_at / RFU VCAN (11757783_s_at) / Fold change /veh VCAN (11757783_s_at) / RFU DDX43 (11728927_at) / Fold change /veh DDX43 (11728927_at) / RFU KRT8 (11758188_x_at) / Fold change /veh KRT8 (11758188_x_at) / RFU NKD1 (11759106_at) / Fold change /veh NKD1 (11759106_at) / RFU SRD5A1 (11742802_a_at) / Fold change /veh SRD5A1 (11742802_a_at) / RFU TPSAB1 /// TPSB2 (11721975_s_at) / Fold change /veh TPSAB1 /// TPSB2 (11721975_s_at) / RFU GSTM3 (11746129_a_at) / Fold change /veh GSTM3 (11746129_a_at) / RFU IL23R (11737362_x_at) / Fold change /veh IL23R (11737362_x_at) / RFU TMEM51 (11727254_a_at) / Fold change /veh TMEM51 (11727254_a_at) / RFU PIWIL2 (11732686_x_at) / Fold change /veh PIWIL2 (11732686_x_at) / RFU ORM1 (11744905_x_at) / Fold change /veh ORM1 (11744905_x_at) / RFU CCDC152 (11743942_at) / Fold change /veh CCDC152 (11743942_at) / RFU ECM1 (11717891_a_at) / Fold change /veh ECM1 (11717891_a_at) / RFU IL23R (11748794_a_at) / Fold change /veh IL23R (11748794_a_at) / RFU TNFAIP8L3 (11732012_x_at) / Fold change /veh TNFAIP8L3 (11732012_x_at) / RFU MBOAT4 (11741988_at) / Fold change /veh MBOAT4 (11741988_at) / RFU 11764193_at / Fold change /veh 11764193_at / RFU TMEM53 (11763286_at) / Fold change /veh TMEM53 (11763286_at) / RFU MAGEB2 (11727129_at) / Fold change /veh MAGEB2 (11727129_at) / RFU TMEM200A (11744735_a_at) / Fold change /veh TMEM200A (11744735_a_at) / RFU CCDC152 (11751479_a_at) / Fold change /veh CCDC152 (11751479_a_at) / RFU FAM211A (11726209_a_at) / Fold change /veh FAM211A (11726209_a_at) / RFU RGS16 (11746705_a_at) / Fold change /veh RGS16 (11746705_a_at) / RFU VCAN (11755009_s_at) / Fold change /veh VCAN (11755009_s_at) / RFU RHOB (11743442_s_at) / Fold change /veh RHOB (11743442_s_at) / RFU RGS16 (11720943_a_at) / Fold change /veh RGS16 (11720943_a_at) / RFU RGS16 (11720944_at) / Fold change /veh RGS16 (11720944_at) / RFU, VPS4B / Fold change vs veh, VPS4B / RFU, CREB1 / Fold change vs veh, CREB1 / RFU, DNAJC13 / Fold change vs veh, DNAJC13 / RFU, GNAQ / Fold change vs veh, GNAQ / RFU, CDK5R1 / Fold change vs veh, CDK5R1 / RFU, ZRANB3 / Fold change vs veh, ZRANB3 / RFU, CUL4A / Fold change vs veh, CUL4A / RFU, CCNY / Fold change vs veh, CCNY / RFU, UFL1 / Fold change vs veh, UFL1 / RFU, COG3 / Fold change vs veh, COG3 / RFU, DIAPH2 / Fold change vs veh, DIAPH2 / RFU, SKA2 / Fold change vs veh, SKA2 / RFU, AFF3 / Fold change vs veh, AFF3 / RFU, LMF1 / Fold change vs veh, LMF1 / RFU, IPO11 / Fold change vs veh, IPO11 / RFU, DFFB / Fold change vs veh, DFFB / RFU, FOXP1 / Fold change vs veh, FOXP1 / RFU, CARD8 / Fold change vs veh, CARD8 / RFU, STRN3 / Fold change vs veh, STRN3 / RFU, ADK / Fold change vs veh, ADK / RFU, RASSF2 / Fold change vs veh, RASSF2 / RFU, WIPF1 / Fold change vs veh, WIPF1 / RFU, LARP1B / Fold change vs veh, LARP1B / RFU, RASA1 / Fold change vs veh, RASA1 / RFU, RB1 / Fold change vs veh, RB1 / RFU, PPFIA1 / Fold change vs veh, PPFIA1 / RFU, MAT2A / Fold change vs veh, MAT2A / RFU, CCT5 / Fold change vs veh, CCT5 / RFU, WDR92 / Fold change vs veh, WDR92 / RFU, CUX1 / Fold change vs veh, CUX1 / RFU, TTC7A / Fold change vs veh, TTC7A / RFU, TMEM135 / Fold change vs veh, TMEM135 / RFU, DEPTOR / Fold change vs veh, DEPTOR / RFU, CPM / Fold change vs veh, CPM / RFU, DNAJB6 / Fold change vs veh, DNAJB6 / RFU, CACNA2D3 / Fold change vs veh, CACNA2D3 / RFU, DTX4 / Fold change vs veh, DTX4 / RFU, TFCP2 / Fold change vs veh, TFCP2 / RFU, GMCL1 /// GMCL1P1 / Fold change vs veh, GMCL1 /// GMCL1P1 / RFU, AEBP2 / Fold change vs veh, AEBP2 / RFU, SNHG1 /// SNORD22 /// SNORD25 /// SNORD26 /// SNORD27 /// SNORD28 /// SNORD29 /// SNORD31 / Fold change vs veh, SNHG1 /// SNORD22 /// SNORD25 /// SNORD26 /// SNORD27 /// SNORD28 /// SNORD29 /// SNORD31 / Fold change (Aza/veh), C12orf56 (ProbeSet 11735607_a_at) / Fold change (ACY-1035/veh), C12orf56 (ProbeSet 11735607_a_at) / Fold change (Aza/veh), FGFR1OP (ProbeSet 11751329_s_at) / Fold change (ACY-1035/veh), FGFR1OP (ProbeSet 11751329_s_at) / Fold change (Aza/veh), VPS36 (ProbeSet 11739960_a_at) / Fold change (ACY-1035/veh), VPS36 (ProbeSet 11739960_a_at) / RFU SYPL1 (11715823_x_at) / Fold change /veh SYPL1 (11715823_x_at) / RFU IGFBP7 (11715501_s_at) / Fold change /veh IGFBP7 (11715501_s_at) / RFU REEP3 (11722064_at) / Fold change /veh REEP3 (11722064_at) / RFU IGLL1 (11728026_x_at) / Fold change /veh IGLL1 (11728026_x_at): dose or concentration left out as unconfirmed", "conditions": "MV-4-11 cells, 48 hours"}
{"smiles": "Nc1ncn([C@@H]2O[C@H](CO)[C@@H](O)[C@H]2O)c(=O)n1", "note": "[azacitidine]", "values": [{"measurement": "RFU ZSCAN30 (11745921_a_at)", "value": 8.95, "unit": "RFU"}]}
